Laboratory results: patent US9980927B2, “Use of tapentadol for inhibiting and/or treating depression and anxiety” (Gruenenthal GmbH, priority 2011, dated 2018)

System: patients with inadequately managed, severe chronic low back pain with or without a neuropathic pain component
Assay: Hospital Anxiety and Depression Scale (HADS) depression score; open-label phase IIIb trial, tapentadol prolonged release 50-250 mg bid for up to 12 weeks
Assay type: in vivo, human patients
Method: As used herein, the “depression score” is a value determining the degree of the depression. The scale of depression scores covers the range from 0 to 21, wherein the degree of the depression is high in case of high values and low in case of low values. In a group of tested subjects, typically the mean or mediate values of depression scores are determined. The mean value is the sum of all depression scores divided by the number of subjects. The mediate value is the middle depression score in the set of determined scores. Preferably, the “depression score” is defined as in the experimental section.
A subgroup suffering from neuropathic pain due to lumbar radiculopathy was also investigated.
This was a multicenter, multinational, open-label, effectiveness phase IIIb trial to evaluate effectiveness and safety of tapentadol prolonged release treatment in patients with inadequately managed, severe chronic low back pain with or without a neuropathic pain component. Patients taking WHO Step II analgesics discontinued those analgesics before starting study medication; patients taking Step I analgesics and/or centrally acting co-analgesics continued on the same dose. […] All patients received tapentadol prolonged release (50-250 mg bid) for up to 12 weeks (5-week titration period and a 7-week maintenance period). Tapentadol immediate release (IR) 50 mg (twice a day, hours apart) was permitted (combined total daily dose of tapentadol prolonged release and tapentadol IR, 500 mg/day). The primary efficacy endpoint was the change from Baseline to Week 6 (when tapentadol prolonged release doses were stable) in average pain intensity on the 11-point NRS-3 using the last observation carried forward (LOCF) for imputing missing scores. The painDETECT questionnaire was used to evaluate the likelihood of a neuropathic pain component of low back pain; patients were classified as painDETECT “negative,” “unclear,” or “positive.” The population of patients classified as painDETECT negative was limited to approximately 30% of the total population.
In the painDETECT positive trial population the “diagnosis of lumbar radiculopathy” was evaluated which was defined per study protocol according following criteria: • typical dermatomal pain (radiating beyond the knee towards the foot, pain evoked by stretching within distribution of the ischiadic/femoral nerve) • signs of root dysfunction: • such as sensory impairment, motor symptoms from compression of lumbar nerve root (L4, L5, S1). • and/or absent or diminished quadriceps femoris or triceps surae reflexes. • and/or quantitative sensory testing (QST) deficit and pain distribution present in the same dermatomal area.
All subjects completed Short Form-36 (SF-36) and EuroQol-5 Dimension (EQ-5D) questionnaires and the Hospital Anxiety and Depression Scale (HADS). The Patient Global Impression of Change (PGIC) and Clinical global impression of change (CGIC) were also used as secondary endpoints. For both tests, patients completed the statement, “since I began trial treatment, I would rate my overall condition as,” using 7 possible responses (“very much worse” to “very much improved”). Adverse events were recorded throughout the trial.
In the following • (i) N is the number of subjects of the specified diagnosis group, • (ii) n is the number of subjects with data available, • (iii) “Mean” is the mean score of the subjects, i.e. the sum of all scores is divided by the number of subjects, • (iv) SD is the standard deviation, • (v) “Median” is the median score of the subjects, i.e. the middle score in the set of scores, • (vi) “Range” is the range of scores of the subjects, i.e. the range defined by the lowest and the highest score of the set of scores. First, the depression scores are presented. The total number of subjects in the clinical study: N=175

[1] = Visit 8, presumed neuropathic pain component N=41
[2] = Visit 8, presumed or defined neuropathic
[3] = Visit 8, presumed or defined neuropathic pain component N=126
[4] = Visit 8, subjects with nociceptive pain N=49
[5] = Visit 9, defined neuropathic pain N=85
[6] = Visit 9, positive diagnosis of lumbar radiculopathy-neuropathic pain subset N=44
[7] = Visit 9, presumed neuropathic pain component N=41
[8] = Visit 9, presumed or defined neuropathic pain component N=126
[9] = Visit 9, subjects with nociceptive pain N=49
[10] = Visit 10, defined neuropathic pain N=85
[11] = Visit 10, positive diagnosis of lumbar radiculopathy-neuropathic pain subset N=44
[12] = Visit 10, presumed neuropathic pain component N=41
[13] = Visit 10, presumed or defined neuropathic pain component N=126
[14] = Visit 10, subjects with nociceptive pain N=49
[15] = Visit 11, defined neuropathic pain N=85
[16] = Visit 11, positive diagnosis of lumbar radiculopathy-neuropathic pain subset N=44
[17] = Visit 11, presumed neuropathic pain component N=41
[18] = Visit 11, presumed or defined neuropathic pain component N=126
[19] = Visit 11, subjects with nociceptive pain N=49
[20] = Visit 12, defined neuropathic pain N=85
[21] = Visit 12, positive diagnosis of lumbar radiculopathy-neuropathic pain subset N=44
[22] = Visit 12, presumed neuropathic pain component N=41
[23] = Visit 12, presumed or defined neuropathic
[24] = Visit 12, presumed or defined neuropathic pain component N=126
[25] = Visit 12, subjects with nociceptive pain N=49

SMILES: CC[C@@H](c1cccc(O)c1)[C@@H](C)CN(C)C [tapentadol, (−)-(1R,2R)-3-(3-dimethylamino-1-ethyl-2-methyl-propyl)-phenol]
- Depression score Median (Visit 8, positive diagnosis of lumbar radiculopathy-neuropathic pain subset N=44): 6.0
- Depression score Mean (SD) [1]: 6.4 (4.24)
- Depression score Median [1]: 6.0
- Depression score change from baseline Mean (SD) [2]: −1.9 (3.30)
- Depression score change from baseline Median [2]: −1.0
- Depression score Mean (SD) [3]: 6.4 (4.24)
- Depression score Median [3]: 6.0
- Depression score Mean (SD) [4]: 5.5 (3.90)
- Depression score Median [4]: 4.5
- Depression score change from baseline Mean (SD) (Visit 8, total): −1.6 (3.09)
- Depression score change from baseline Median (Visit 8, total): −1.0
- Depression score Mean (SD) (Visit 8, total subjects N=175): 6.2 (4.16)
- Depression score Median (Visit 8, total subjects N=175): 6.0
- Depression score Mean (SD) [5]: 6.5 (5.06)
- Depression score Median [5]: 6.0
- Depression score Mean (SD) [6]: 6.2 (4.63)
- Depression score Median [6]: 7.5
- Depression score Mean (SD) [7]: 6.4 (4.32)
- Depression score Median [7]: 6.0
- Depression score Mean (SD) [8]: 6.5 (4.81)
- Depression score Median [8]: 6.0
- Depression score Mean (SD) [9]: 5.4 (3.49)
- Depression score Median [9]: 5.0
- Depression score Mean (SD) (Visit 9, total subjects N=175): 6.1 (4.48)
- Depression score Median (Visit 9, total subjects N=175): 6.0
- Depression score Mean (SD) [10]: 6.5 (5.04)
- Depression score Median [10]: 6.0
- Depression score Mean (SD) [11]: 6.2 (4.50)
- Depression score Median [11]: 7.0
- Depression score Mean (SD) [12]: 6.4 (5.34)
- Depression score Median [12]: 5.0
- Depression score Mean (SD) [13]: 6.5 (5.09)
- Depression score Median [13]: 6.0
- Depression score Mean (SD) [14]: 5.5 (3.34)
- Depression score Median [14]: 5.5
- Depression score Mean (SD) (Visit 10, total subjects N=175): 6.2 (4.66)
- Depression score Median (Visit 10, total subjects N=175): 6.0
- Depression score Mean (SD) [15]: 5.9 (4.70)
- Depression score Median [15]: 5.5
- Depression score Mean (SD) [16]: 6.0 (4.69)
- Depression score Median [16]: 6.5
- Depression score Mean (SD) [17]: 6.4 (5.11)
- Depression score Median [17]: 5.0
- Depression score Mean (SD) [18]: 6.0 (4.80)
- Depression score Median [18]: 5.0
- Depression score Mean (SD) [19]: 5.6 (4.04)
- Depression score Median [19]: 5.0
- Depression score Mean (SD) (Visit 11, total subjects N=175): 5.9 (4.59)
- Depression score Median (Visit 11, total subjects N=175): 5.0
- Depression score change from baseline Mean (SD) (Visit 12): −1.5 (3.30)
- Depression score change from baseline Median (Visit 12): −2.0
- Depression score change from baseline Mean (SD) (Visit 12, defined neuropathic): −2.2 (3.31)
- Depression score change from baseline Median (Visit 12, defined neuropathic): −2.0
- Depression score Mean (SD) [20]: 5.8 (4.76)
- Depression score Median [20]: 5.0
- Depression score change from baseline Mean (SD) (Visit 12, lumbar radiculopathy): −2.1 (3.30)
- Depression score change from baseline Median (Visit 12, lumbar radiculopathy): −1.0
- Depression score change from baseline Mean (SD) (Visit 12, nociceptive): −0.5 (2.86)
- Depression score change from baseline Median (Visit 12, nociceptive): 0.0
- Depression score Mean (SD) [21]: 5.3 (4.09)
- Depression score Median [21]: 5.0
- Depression score Mean (SD) [22]: 6.2 (4.66)
- Depression score Median [22]: 5.0
- Depression score change from baseline Mean (SD) [23]: −2.0 (3.30)
- Depression score change from baseline Median [23]: −2.0
- Depression score Mean (SD) [24]: 5.9 (4.70)
- Depression score Median [24]: 5.0
- Depression score Mean (SD) [25]: 4.9 (3.13)
- Depression score Median [25]: 4.0
- Depression score change from baseline Mean (SD) (Visit 12, total): −1.6 (3.24)
- Depression score change from baseline Median (Visit 12, total): −2.0
- Depression score Mean (SD) (Visit 12, total subjects N=175): 5.7 (4.35)
- Depression score Median (Visit 12, total subjects N=175): 5.0
- efficacy against depression (conclusion from the clinical data): significant efficacy
- depression (measured with HADS) (patient sub-population with low back pain with a neuropathic component): significant improvement
